Consider nine molecules from patent US10208011B2, “Benzothiophene estrogen receptor modulators” (G1 Therapeutics, Inc., priority 2017, dated 2019).

Test [1] addresses human estrogen receptor (ERα) (Homo sapiens (Human), UniProt P03372). The test can be described thus: Human ERα Reporter Assay (Indigo Biosciences). The test is classed as cell-based. The conditions noted are these: antagonist mode, 17β-estradiol 8E-10 M, 24 hours. As to the method:
All reagents used in this assay was supplied in the Human ERα Reporter Assay by Indigo Biosciences # IB00401. In an effort to screen selective estrogen receptor degraders (SERDs), the Human ERα Reporter Assay, supplied by Indigo Biosciences, was utilized to quantify antagonist functional activity against the human estrogen receptor. Reporter cells were thawed at 37° C. and added to pre-warmed to 37° C. cell recovery medium (CRM). Stock concentration of 17β-estradiol was serially diluted in CRM. Diluted 17β-estradiol was added to CRM containing reporter cells resulting in a working concentration of 1.6 nM (2×). Cells plus 17β-estradiol were dispensed in a kit-supplied white walled 96-well plate. Concentrated stocks of test compounds were diluted to 2× working concentrations in cell screening medium (CSM). 2× concentrated compounds were added to the plated cells in a dose-dependent manner resulting in a final concentration range of 1E-11 to 1E-5 M and a final 17β-estradiol concentration of 8E-10 M. Assay plates were incubated for 24 hours in a humidified 37° C. incubator. Culture medium was removed from the assay plates by inversion. Detection substrate and buffer was warmed to room temperature, mixed thoroughly, and immediately added to the assay plates. Assay plates were incubated for 15 minutes at room temperature protected from light. Luminescence was measured in a Synergy HTX luminescence plate reader. Data is processed utilizing GraphPad Prism 7 by graphing the relative light units measured at each compound concentration. This procedure was used to produce the graph in FIG. 1, FIG. 9, FIG. 10, FIG. 11, FIG. 12, FIG. 13, and FIG. 14.
(§1) In the below table for the Estrogen Receptor Degradation Assay and the Human ERα Reporter Assay: […]

In test [2] the target is estrogen receptor α in MCF7 cells (Homo sapiens (Human), UniProt P03372). The test can be described thus: Estrogen Receptor (ER) Degradation Assay (In-Cell Western). Type of test: cell-based. The conditions noted are these: for IC50: 24 hours, In-Cell Western; for % Estrogen Receptor Remaining: vehicle set to 100%. As to the method: A screening strategy was implemented utilizing an In-Cell Western assay to measure their ability to degrade the estrogen receptor in vitro. MCF7 cells, which are estrogen receptor positive, were plated at a cell density of […] into black walled clear bottom 96-well plates. Cells were incubated in phenol red free Dulbecco's Modified Eagle Media (DMEM) supplemented with 8% charcoal-stripped fetal bovine calf serum for 24 hours in a humidified 37° C. incubator. Concentrated stock compounds were diluted to 10× in complete media. Compounds were added to the plated cells in a dose-dependent manner ranging from 1E-12 to 1E-05 M and incubated for an additional 24 hours at 37° C. Culture medium was removed from the culture plates by gentle inversion. Cells were fixed in 4% paraformaldehyde in 1× phosphate buffered saline-calcium magnesium free (PBS-CMF) for 15 minutes at room temperature, washed 3 times for 5 minutes each in 1×PBS-CMF. Cells were permeabilized in immunofluorescence (IF) blocking buffer (Cell Signaling #12411) containing 0.3% Triton X100. Cells were washed 3 times for 5 minutes each in 1×PBS-CMF and incubated in estrogen receptor α (D6R2W) rabbit primary antibody (Cell Signaling #13258) diluted 1:300 in IF antibody dilution buffer (Cell Signaling #12378). Cells were washed 3 times for 5 minutes each in 1×PBS-CMF and stained with goat anti-rabbit (Biotium #CF770) secondary antibody diluted 1:2000 in IF antibody dilution buffer and normalizing stain CellTag 700 diluted 1:500 (Licor #926-41090). ER protein expression was assessed by the Licor Odyssey CLx imaging system using Image Studio v5.2. Data is processed utilizing GraphPad Prism 7 by subtracting background from the vehicle and setting the vehicle to 100% ER activity, followed by comparing treated samples to vehicle. This procedure was used to produce the graph in FIG. 2, FIG. 3, FIG. 4, FIG. 5, FIG. 6, FIG. 7, and FIG. 8.
Chain of estrogen receptor α in MCF7 cells (P03372 whole entry): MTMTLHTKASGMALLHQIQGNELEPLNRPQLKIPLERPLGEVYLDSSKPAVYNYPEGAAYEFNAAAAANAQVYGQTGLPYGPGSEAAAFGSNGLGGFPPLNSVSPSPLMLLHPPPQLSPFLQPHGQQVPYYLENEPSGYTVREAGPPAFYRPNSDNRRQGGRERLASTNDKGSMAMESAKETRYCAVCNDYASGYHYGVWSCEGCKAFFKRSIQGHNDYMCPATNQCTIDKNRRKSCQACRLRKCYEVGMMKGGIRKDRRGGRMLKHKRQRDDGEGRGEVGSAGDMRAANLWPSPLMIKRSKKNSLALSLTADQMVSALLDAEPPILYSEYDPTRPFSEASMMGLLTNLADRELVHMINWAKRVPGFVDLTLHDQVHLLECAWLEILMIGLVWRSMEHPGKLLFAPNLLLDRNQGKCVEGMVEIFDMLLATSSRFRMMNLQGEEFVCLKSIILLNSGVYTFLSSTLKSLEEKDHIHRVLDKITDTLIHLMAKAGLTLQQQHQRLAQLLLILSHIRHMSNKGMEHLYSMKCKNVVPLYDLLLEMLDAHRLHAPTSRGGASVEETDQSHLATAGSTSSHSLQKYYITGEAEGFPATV
as §1

Structures are written as SMILES. Some results are limits rather than exact numbers.

Chain of human estrogen receptor (ERα) (P03372 whole entry): as above

Take `CNCc1ccc(Oc2c(C(=O)c3c(C)cc(F)cc3C)sc3cc(O)ccc23)cc1` [Compound 113, (4-fluoro-2,6-dimethylphenyl)(6-hydroxy-3-(4-((methylamino)methyl)phenoxy)benzo[b]thiophen-2-yl)methanone]: the IC50 in test [1] and in test [2] was less than 1000 nM each time. For the same molecule, in test [2], the “% Estrogen Receptor Remaining” value is “*** (*** denotes 41-70% Estrogen Receptor remaining)”.
With `Cc1cc(F)cc(C)c1C(=O)c1sc2cc(O)ccc2c1Oc1ccc(CN(C)C)cc1` [Compound 114, (3-(4-((dimethylamino)methyl)phenoxy)-6-hydroxybenzo[b]thiophen-2-yl)(4-fluoro-2,6-dimethylphenyl)methanone], the half-maximal inhibitory concentration (IC50) – broadly, the concentration needed to halve the response being measured – in test [1] was less than 1000 nM. Also, in test [2], the IC50 is less than 1000 nM and the “% Estrogen Receptor Remaining” value is “** (** denotes 71-90% Estrogen Receptor remaining)”.
Regarding `Cc1cc(F)cc(C)c1C(=O)c1sc2cc(O)ccc2c1Oc1ccc(C2CCCNC2)cc1` (stereo not drawn) [Compound 103, (4-fluoro-2,6-dimethylphenyl)(6-hydroxy-3-(4-(piperidin-3-yl)phenoxy)benzo[b]thiophen-2-yl)methanone], the IC50 in test [1] was less than 1000 nM. Also, in test [2], the IC50 was less than 50000 nM and the “% Estrogen Receptor Remaining” value is on record as “**** (**** denotes 0-40% Estrogen Receptor remaining)”.
`Cc1cc(F)cc(C)c1C(=O)c1sc2cc(O)ccc2c1Oc1ccc(N2CCCCCC2)cc1` [Compound 102, (3-(4-(azepan-1-yl)phenoxy)-6-hydroxybenzo[b]thiophen-2-yl)(4-fluoro-2,6-dimethylphenyl)methanone]: the concentration for half-maximal inhibition (IC50) in test [1] and in test [2] was less than 1000 nM in each case. Also, in test [2], the “% Estrogen Receptor Remaining” value was “*** (*** denotes 41-70% Estrogen Receptor remaining)”.
Take `Cc1cc(F)cc(C)c1C(=O)c1sc2cc(O)ccc2c1Oc1ccc(CCN)cc1` [Compound 104, (3-(4-(2-aminoethyl)phenoxy)-6-hydroxybenzo[b]thiophen-2-yl)(4-fluoro-2,6-dimethylphenyl)methanone]: in test [1], the IC50 is less than 1000 nM. For the same molecule, in test [2], the IC50 is less than 1000 nM and the “% Estrogen Receptor Remaining” value is listed as “*** (*** denotes 41-70% Estrogen Receptor remaining)”.
`CCC(CC)NCCc1ccc(Oc2c(C(=O)c3c(C)cc(F)cc3C)sc3cc(O)ccc23)cc1` [Compound 109, (4-fluoro-2,6-dimethylphenyl)(6-hydroxy-3-(4-(2-(pentan-3-ylamino)ethyl)phenoxy)benzo[b]thiophen-2-yl)methanone]: in test [1], the IC50 is less than 1000 nM. In test [2], the IC50 was less than 1000 nM and the “% Estrogen Receptor Remaining” value is “*** (*** denotes 41-70% Estrogen Receptor remaining)”.
On to `Cc1cc(F)cc(C)c1C(=O)c1sc2cc(O)ccc2c1-c1ccc(OCCN2CCC(CF)C2)cc1` (stereo not drawn) [Compound 123, (4-fluoro-2,6-dimethylphenyl)(3-(4-(2-(3-(fluoromethyl)pyrrolidin-1-yl)ethoxy)phenyl)-6-hydroxybenzo[b]thiophen-2-yl)methanone], for which the IC50 in test [1] is less than 50000 nM. Further, in test [2], the IC50 is less than 1000 nM and the “% Estrogen Receptor Remaining” value is on record as “*** (*** denotes 41-70% Estrogen Receptor remaining)”.
In the case of `Cc1cc(F)cc(C)c1C(=O)c1sc2cc(O)ccc2c1-c1ccc(OCCN2CCC(CF)CC2)cc1` [Compound 124, (4-fluoro-2,6-dimethylphenyl)(3-(4-(2-(4-(fluoromethyl)piperidin-1-yl)ethoxy)phenyl)-6-hydroxybenzo[b]thiophen-2-yl)methanone], the 50% inhibitory concentration (IC50) in test [1] is less than 50000 nM. In test [2], the IC50 was less than 1000 nM and the “% Estrogen Receptor Remaining” value was “*** (*** denotes 41-70% Estrogen Receptor remaining)”.
Taken in the same sequence, the figures for `CCN(CC)CCc1ccc(Oc2c(C(=O)c3c(C)cc(F)cc3C)sc3cc(O)ccc23)cc1` [Compound 112, (3-(4-(2-(diethylamino)ethyl)phenoxy)-6-hydroxybenzo[b]thiophen-2-yl)(4-fluoro-2,6-dimethylphenyl)methanone] were less than 1000 nM, less than 1000 nM and “*** (*** denotes 41-70% Estrogen Receptor remaining)”.
